Legend:
[1] = In vivo imaging (IVIS) of lymphatic trafficking; design: species or system C57BL/6 mice; conditions: subcutaneous at tail base, 15 μmol FITC, 0 to 168 h
From the text: C57BL/6 mice were subcutaneously injected with 15 μmol (FITC) of different FITC-labeled formulations (FITC, F-L, F-M) at tail base. The diffusion from injection sites was detected using an in vivo imaging system (IVIS) (Caliper life Sciences, Hopkinton, MA, USA). Spectrum unmixing technique was applied to reducing the effect of native tissue auto-fluorescence, separating detecting fluorescence and analyzing fluorescence diffusion. For imaging on inguinal and axillary LNs, LNs were excised and imaged at indicated time points. An image set (Ex: 500, Em: 540, f4, bin 8, 2 s) was collected. Living Image software Version 4.4 (Caliper Life Sciences, Waltham, MA, USA) was used to acquire and quantify the fluorescence imaging data sets.

DC2.4 cells = assay: Confocal imaging of intracellular localisation of RhB-labeled peptides; assay type: cell-based, mouse (C57BL/6); conditions: 20 μM RhB-labeled peptide, 37 °C, 30 min (legend; text says 2 h), LysoTracker Green or EGFP-Rab5, confocal, three independent experiments
Experimental: DC2.4 cells or EGFP-Rab5 expressing DC2.4 cells were seeded in 35 mm glass-bottom plates. After overnight culture, different formulations of indicated Rhodamine-labeled peptides (20 μM) were added and incubated at 37 °C for 30 min or 2 h. Then, 100 nM Lyso-Tracker Green or ER-Tracker Green (Life Technologies, Grand Island, NY, USA) was added and incubated for 5 or 20 min, respectively. The processes of PEG-PE inserting into cell membranes, peptide internalization and the co-localization of peptides with early endosome (Rab5), lysosome or ER were imaged using a confocal microscope LSM-700 (ZEISS, Germany).
TC-1, a tumor cell line transformed from C57BL/6 primar y mouse lung cells, was kindly provided b y Dr. Xuemei Xu (Institute of Basic Medical Sciences Chinese Academ y of Medical Sciences & School of Basic Medicine, Peking Union Medical College, Beijing, China). DC2.4, an immortalized DC cell line derived from C57BL/6 mice, was kindl y provided by Dr. Li Tang (Ke y Laborator y of Protein Engineering, Academ y of Military Medical Sciences, Beijing, China). RAW 264.7, a macrophage like cell line derived from BALB/c mice, was purchased from the Type Culture Collection of the Chinese Academ y of Sciences (Shanghai, China). MC38 is a murine colon adenocarcinoma cell line. MC38- OVA was sorted and subcloned after MC38 cells were stable transduced with retrovirus expressing mouse […]–O T I.
B16-F10 murine melanoma cell line was originally obtained from ATCC, catalog no.
CRL-6475. All cells were cultured in complete RPMI1640 medium according to […]
Preparation of PE G-PE micellized antigenic peptides
Briefl y, peptides (HPV16 E7 43-62 , O VA 250-264 , sCT) or Rhodamine labeled peptides (RhB-peptide) were dissolved in methanol, respectivel y. Then the three peptides were respectively mixed with corresponding amount PEG 2000 -PE or FITC labeled PEG 2000 -PE(FITC-PP) which was dissolved in chloroform in a 1/10 molar ratio of peptide/PEG-PE. Then the peptide containing micelle were prepared as described in […]

TLR4 [2] = biological target: T1, TLR4 (Mus musculus, UniProt Q9JHF9+Q9QUK6); assay: MPLA activity assay (TNF-α ELISA); assay type: cell-based, mouse (RAW264.7 cells); conditions: RAW264.7 cells, 2 h, mean±s.d. n=4
T1 construct: endogenous in cells; host or cells: RAW264.7 (mouse macrophage-like cell line)
Experimental: (§1) 0.5 mg/ml with deionized water. Particle sizes were shown as intensity-w eight ed diameters. The values were repo rted as the mean ± standard deviation (SD) based on more than three individual measurements performed in triplicate.
(§2) […] RAW264.7 cells were seeded in 24-well plates overnight. Then, the cells were treated with 10, 100, 1000ng/ml MPLA, M-MPLA, Lipo/MPLA, PLA/MPLA, or PEG 2000 -DPG (1,2-dipalmitate-sn-gl yc e r o -3- O-[(polyethylene glycol)-2000]) micellized MPLA (DP-M-MP LA), PEG 2000 -L-DPG (1,2-dipalmitate-sn-gl yc e r o -3-(6-amido-2-aminohexanoyl ox y)-N-[(polyethylene glycol)-2000]) micellized MPLA (N-M-MPLA), respectively for 2 h prior to harvesting the supernatant. TLR4 activation was measured by the cumulative production of TNF-α using the mouse TNF-α ELISA kit (eBios cience, San Diego, CA, USA).
(§3) M-MPL A activity assay in serum f ree mediu m or under LBP-blocking condition RAW264.7 cells were seeded and cultured overnight. Then the cells were either treated (1) with s erum-free medium (S FM) or (2) with LBP-blocking pepti de. (1): The cells were washed with SFM three times before experiment, then treated with 100ng/ml MP LA, M-MP LA, or LPS in the p resen ce o r abs ence of serum respectivel y; (2):The cells were treated with or without LBPK95A (LBPK95A sequence:
(§4) added and incubated for 2h prior to harvesting the supernatant. TLR4 activation was […]

TLR4 [3] = biological target: T1, TLR4; assay: M-MPLA activity assay in serum free medium or under LBP-blocking condition; assay type: cell-based, mouse (RAW264.7 cells); conditions: RAW264.7 cells, 2 h, serum-free medium or 100 μg/ml LBPK95A, ELISA
Experimental: as §1, §2, §3, §4

[4] = cited from earlier work
From the text: Both MPLA and LPS have very low critical micelle concentration to tend to form the micelle at 10^−9 mol concentration. Only their monomers can bind to the TLR4/MD-2 heterodimers, and after binding, two TLR4/MD-2 heterodimers form the TLR4/MD-2 heterotetramers for signaling transduction. As a chaperon, LBP in serum can induce disassembly of MPLA and LPS, and then transfer them with CD14 to their receptors (Supplementary Figure S3A; [36]). […] However, as a detoxic form of LPS, the adjuvant activity is also attenuated. […] One reason of PEG-PE micelles accounting for these may be its monomerization of MPLA. MPLA, as well as LPS, has very low critical micelle concentration (~10^−9 M), thus are usually present as aggregates [[32], ...

[5] = Circular dichroism (CD) spectroscopy of secondary structure; assay type: physicochemical; conditions: free peptide or PEG-PE micellized peptide
TLR4/MD-2 = biological target: T2, TLR4/MD-2 (Mus musculus, UniProt Q9JHF9+Q9QUK6); assay: TLR4/MD-2 heterotetramer formation detection (MTS510 staining); assay type: cell-based, mouse (RAW264.7 cells); conditions: RAW264.7 cells, 100 ng/ml, 15 min, 37 °C, flow cytometry
T2 construct: endogenous in cells; host or cells: RAW264.7 (mouse macrophage-like cell line)
Experimental: measured as describ ed ab ove.
TLR4/MD-2 heterotetramer forma tion detecti on RAW264.7 cells were stimulated with 100ng/ml MPLA, M+MPLA, M -MPLA, or LPS for 15min at 37℃. Then the treated cells were put on ice and washed with PBS.
After blocking with anti- FcγR mAb (2.4G2), the cells were incubated with one of the following antibodies: MTS510 PE, Rat IgG2a K isotype control PE. Finally, the cells were anal yz ed b y flow cyt ometr y (Calibur, BD Bioscience).
Bone marrow dendritic cells (BMDC) g enera tion
BMDCs are generated as described previously 2. Briefly, bone marrow (BM) cells were collected from tibias and femurs of female C57BL/6 mice. At da y 0, 2×10^6 BM cells were cultured in 100mm plate with 10ml complete RPMI 1640 medium containing 200 U/ml rmGM-CSF (PeproTech, Rocky Hill, NJ). At day 3, another 10 ml RPMI 1640 medium containing 200U/ml rmGM-CSF were added. At day 6, the immature BMDCs were collected and read y to us e.
BMDCs or splenocytes from C57BL/6 mice were seeded in 96-well plates and cultured in the presence of 100 ng/ml different MPLA formulations (MPLA, M+MP LA, M- MPLA), or 10 μg empt y PEG -PE micelle. For RNA detection, BMDCs were collected 1h after stimulation. For protein detection, the supernatants were […]

TC-1 cells = assay: Vaccination combined with cisplatin chemotherapy, TC-1 tumors; assay type: in vivo, C57BL/6 mice; conditions: cisplatin 5 mg/kg i.v. three times, vaccine s.c. three times, with high dose tumor re-challenge, n=10
Experimental: To detect the LN targeting deliver y of pol ypeptide antigens by micelle, C57BL/6 mice were subcutaneousl y injected with 14.6 nmol different formulations of RhB labeled E7 peptide (E7, Pal-E7 and M-E7) at tail base. The DLNs were ex cised and digested into single cell suspension at 24h post-injection, the RhB+ DCs and Macrophages cells wer e detected b y flo w c ytom etr y.
Vaccination combined with cisplatin chemotherapy
C57BL/6 mice were inoculated subcutaneousl y with 5×10^4 TC-1 tumor cells. Two weeks later when the tumor volume reached 100 mm3 (day 0), tumor -bearing mice were treated with cisplatin (5mg/kg bod y weight) intravenousl y for three times at 5 days interval. On the same day of the last chemotherap y, mice were vaccinated subcutaneousl y with micelle vaccine or normal saline (NS) for three times at 7da ys interval. Tumor growth and tumor free rate was monitored twice per week.
Vaccination co mbined w ith surgical operation
C57BL/6 mice were injected subcutaneousl y on the right flank with 5×10^4 TC-1 tumor cells. One month later when the volume of tumor reached 1000mm 3 (day 0), mice were anesthetized and full resection was executed by excising the tumor using standard blunt dissection. Sterile silk sutures were used to close wounds.
Accompanied b y wound closure, mice were vaccinated subcutaneousl y with micelle vaccine or NS for three times at 7 days interval. […]

T1 sequence (Q9JHF9 19-160): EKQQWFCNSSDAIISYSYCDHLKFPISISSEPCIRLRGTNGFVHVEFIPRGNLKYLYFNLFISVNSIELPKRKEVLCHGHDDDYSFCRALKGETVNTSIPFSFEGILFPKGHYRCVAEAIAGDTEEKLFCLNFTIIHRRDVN
T1 sequence (Q9QUK6 26-835): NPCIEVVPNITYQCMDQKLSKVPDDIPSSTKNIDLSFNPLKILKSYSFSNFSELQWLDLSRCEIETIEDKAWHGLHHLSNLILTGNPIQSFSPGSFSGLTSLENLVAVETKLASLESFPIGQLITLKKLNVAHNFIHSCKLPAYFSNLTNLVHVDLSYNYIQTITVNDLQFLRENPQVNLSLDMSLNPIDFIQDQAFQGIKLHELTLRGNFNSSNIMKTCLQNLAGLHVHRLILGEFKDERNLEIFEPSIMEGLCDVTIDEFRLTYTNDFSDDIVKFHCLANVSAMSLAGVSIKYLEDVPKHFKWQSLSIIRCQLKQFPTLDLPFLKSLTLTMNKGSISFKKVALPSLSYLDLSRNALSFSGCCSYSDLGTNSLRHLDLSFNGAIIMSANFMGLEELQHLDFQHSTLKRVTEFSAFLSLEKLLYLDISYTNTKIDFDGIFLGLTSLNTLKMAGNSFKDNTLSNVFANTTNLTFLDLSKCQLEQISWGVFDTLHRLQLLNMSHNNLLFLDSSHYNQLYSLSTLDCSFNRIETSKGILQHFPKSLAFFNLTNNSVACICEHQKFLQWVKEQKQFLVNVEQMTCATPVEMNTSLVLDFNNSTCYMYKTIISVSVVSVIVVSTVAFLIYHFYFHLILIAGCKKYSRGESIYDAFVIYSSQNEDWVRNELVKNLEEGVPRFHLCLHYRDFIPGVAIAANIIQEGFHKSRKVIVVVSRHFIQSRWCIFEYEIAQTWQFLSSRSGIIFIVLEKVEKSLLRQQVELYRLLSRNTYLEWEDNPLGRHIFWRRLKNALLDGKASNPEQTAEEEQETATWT
T2 sequence (Q9JHF9 19-160): as the sequence (Q9JHF9 19-160) above
T2 sequence (Q9QUK6 26-835): as the sequence (Q9QUK6 26-835) above

Fluorescein isothiocyanate [FITC]
Diffusion from the injection site [1]: mostly stayed and largely retained around the injection sites even 7 days post injection

GQAEPDRAHYNIVTFCCKCD [E7, HPV16 E7_43-62 antigenic peptide, RhB-labeled for imaging]
Intracellular location of RhB-labeled peptide relative to lysosomes / endosomes (DC2.4 cells): contained within lysosomes

Monophosphoryl lipid A [MPLA]
MPLA concentration generating a comparable level of TNF-α (TLR4 [2]): 1 000 ng ml^−1 | TNF-α secretion in serum-free medium (without LBP) or with LBP-blocking peptide (TLR4 [3]): could not efficiently stimulate macrophage to secret TNF-α | Critical micelle concentration [4]: ~ 10^−9 M | Critical micelle concentration (concentration at which micelles tend to form) [4]: 10^−9 mol

salmon calcitonin [sCT]
Secondary structure by CD spectroscopy [5]: non-α-helical peptides | Intracellular location of RhB-labeled peptide relative to lysosomes / endosomes (DC2.4 cells): contained within lysosomes

lipopolysaccharide [LPS]
TNF-α secretion in serum-free medium (without LBP) or with LBP-blocking peptide (TLR4 [3]): could not efficiently stimulate macrophage to secret TNF-α | Critical micelle concentration [4]: ~ 10^−9 M | Critical micelle concentration (concentration at which micelles tend to form) [4]: 10^−9 mol | MTS510 mAb reactive surface TLR4/MD-2 complex (TLR4/MD-2): dramatically downregulated MTS510 mAb reactive surface TLR4/MD-2 complex

SGLEQLESIINFEKL [OVA peptide, OVA250-264 antigenic peptide]
Intracellular location of RhB-labeled peptide relative to lysosomes / endosomes (DC2.4 cells): largely outside lysosomes

N.N.[Cl][Pt][Cl] [cisplatin]
Mice remaining tumor-free at 3 months after treatment (TC-1 cells): none

Source: PMC5379745, “Coordinating antigen cytosolic delivery and danger signaling to program potent cross-priming by micelle-based nanovaccine” (Cell Discovery, 2017)
